Measured values published in patent publication US20240368194A1, “IRAK4 DEGRADATION AGENT, AND PREPARATION METHOD THEREFOR AND USE THEREOF” (SHANGHAI LEADINGTAC PHARMACEUTICAL CO. LTD., priority 2021, published 2024).

What was measured:
[1] = target: IRAK4 protein in THP-1 cells (Homo sapiens (Human), UniProt Q9NWZ3); assay: Degradation of IRAK4 in THP-1 cells, human IRAK4 AlphaLISA assay; assay type: cell-based; conditions: 24 h incubation
Method in brief: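 THP-1 cells, after overnight plating, exposed 24 h at 37 °C to compound at 0.03-3000 nM final. Lysate IRAK4 read by Western blot and by AlphaLISA (acceptor beads 10 μg/mL, biotin anti-IRAK4 1 nM, donor beads 40 μg/mL, 23 °C). DC50 and Dmax from log concentration-response fit.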

IRAK4 kinase = IRAK4 kinase (Homo sapiens (Human), UniProt Q9NWZ3); assay: IRAK4 kinase activity test (KinEASE-STK S1 HTRF kit); assay type: biochemical; conditions: 2.5 nM IRAK4 kinase, 7 μM ATP, 37° C. 120 min
Chain of IRAK4 kinase (Q9NWZ3 whole entry): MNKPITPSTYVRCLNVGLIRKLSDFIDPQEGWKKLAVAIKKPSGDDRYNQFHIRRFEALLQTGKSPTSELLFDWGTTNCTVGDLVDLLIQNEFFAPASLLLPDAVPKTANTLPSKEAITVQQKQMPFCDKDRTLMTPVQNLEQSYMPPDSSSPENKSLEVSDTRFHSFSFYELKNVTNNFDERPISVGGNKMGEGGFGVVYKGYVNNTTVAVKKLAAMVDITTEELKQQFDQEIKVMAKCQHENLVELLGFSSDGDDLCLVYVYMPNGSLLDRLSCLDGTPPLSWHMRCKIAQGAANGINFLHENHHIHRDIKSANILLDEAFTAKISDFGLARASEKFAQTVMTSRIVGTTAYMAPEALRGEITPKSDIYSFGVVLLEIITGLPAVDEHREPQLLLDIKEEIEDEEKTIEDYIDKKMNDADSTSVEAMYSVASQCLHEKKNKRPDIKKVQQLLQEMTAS
Description: Then 2.5 nM 1RAK4 kinase (Carna), 1 μM biotinylated polypeptide substrate (Cisbio) and 7 μM adenosine triphosphate (Sigma-Aldrich) were sequentially added, and the mixtures were incubated at 37° C. for 120 min. Subsequently, an anti-phosphoserine/threonine antibody (Cisbio) conjugated with a europium element compound and conjugated modified XL665 streptavidin (Cisbio) were added to the reaction systems to stop the reactions. After 1 h of incubation at room temperature, the fluorescence intensity of each well was measured at the excitation wavelength of 337 nm and the emission wavelengths of 620 nm and 665 nm with a microplate reader EnVision (PerkinElmer) in the HTRF mode, and Ratio values were calculated using the formula Ratio=(665 nm/620 nm)×[…]. The inhibition rate of the compound at each concentration was calculated by comparing the fluorescence intensity ratio with that of the control group. Then a non-linear curve fitting of logarithmic concentration-inhibition rate was performed using GraphPad Prism 7, and the IC50 value of the compound was obtained.

Chain of IRAK4 protein in THP-1 cells (Q9NWZ3 whole entry): as above

| Compound | DC50 [1] [nM] | Dmax [1] [%] | IC50 (IRAK4 kinase) [nM] |
| --- | --- | --- | --- |
| O=C1CCN(c2cc(C(=O)N3CCN(CCCCN4CCC(n5cc(NC(=O)c6cnn7ccc(N8C[C@H]9C[C@@H]8CO9)nc67)c(C(F)F)n5)CC4)CC3)ccc2Cl)C(=O)N1 [Example 40, 5-((1R,4R)-2-oxa-5-azabicyclo[2.2.1]heptan-5-yl)-N-(1-(1-(4-(4-(4-chloro-3-(2,4-dioxotetrahydropyrimidin-1(2H)-yl)benzoyl)piperazin-1-yl)-n-butyl)piperidin-4-yl)-3-(difluoromethyl)-1H-pyrazol-4-yl)pyrazolo[1,5-a]pyrimidine-3-carboxamide] | 32.8 | 79.2 | 34.5 |
| O=C1CCN(c2cc(C(=O)N3CCC4(CCC(CCN5CCC(n6cc(NC(=O)c7cnn8ccc(N9CCOCC9)nc78)c(C(F)F)n6)CC5)CC4)CC3)ccc2Cl)C(=O)N1 [Example 42, N-(1-(1-(2-(3-(4-chloro-3-(2,4-dioxotetrahydropyrimidin-1(2H)-yl)benzoyl)-3-azaspiro[5.5]undecan-9-yl)ethyl)piperidin-4-yl)-3-(difluoromethyl)-1H-pyrazol-4-yl)-5-morpholinopyrazolo[1,5-a]pyrimidine-3-carboxamide] | 3.66 | 91.7 | 18.6 |
| O=C1CCN(c2cc(C(=O)N3CCC4(CCC(CCN5CCC(n6cc(NC(=O)c7cnn8ccc(N9C[C@H]%10C[C@@H]9CO%10)nc78)c(C(F)F)n6)CC5)CC4)CC3)ccc2Cl)C(=O)N1 [Example 43, 5-((1R,4R)-2-oxa-5-azabicyclo[2.2.1]heptan-5-yl)-N-(1-(1-(2-(3-(4-chloro-3-(2,4-dioxotetrahydropyrimidin-1(2H)-yl)benzoyl)-3-azaspiro[5.5]undecan-9-yl)ethyl)piperidin-4-yl)-3-(difluoromethyl)-1H-pyrazol-4-yl)pyrazolo[1,5-a]pyrimidine-3-carboxamide] | 15.1 | 79.5 | 45 |
| Cc1ccc(C(=O)N2CCC3(CCC(CN4CCC(n5cc(NC(=O)c6cnn7ccc(N8C[C@H]9C[C@@H]8CO9)nc67)c(C(F)F)n5)CC4)CC3)CC2)cc1N1CCC(=O)NC1=O [Example 44, 5-((1R,4R)-2-oxa-5-azabicyclo[2.2.1]heptan-5-yl)-N-(3-(difluoromethyl)-1-(1-((3-(3-(2,4-dioxotetrahydropyrimidin-1(2H)-yl)-4-methylbenzoyl)-3-azaspiro[5.5]undecan-9-yl)methyl)piperidin-4-yl)-1H-pyrazol-4-yl)pyrazolo[1,5-a]pyrimidine-3-carboxamide] | 6.3 | 80.5 | 13.4 |
| Cc1ccc(C(=O)N2CCC3(CCC(CN4CCC(n5cc(NC(=O)c6cnn7ccc(N8CCC[C@H](N)C8)nc67)c(C(F)F)n5)CC4)CC3)CC2)cc1N1CCC(=O)NC1=O [Example 49, (S)-5-(3-aminopiperidin-1-yl)-N-(3-(difluoromethyl)-1-(1-((3-(3-(2,4-dioxotetrahydropyrimidin-1(2H)-yl)-4-methylbenzoyl)-3-azaspiro[5.5]undecan-9-yl)methyl)piperidin-4-yl)-1H-pyrazol-4-yl)pyrazolo[1,5-a]pyrimidine-3-carboxamide] | 3.22 | 97.1 | 7.05 |
| Cc1ccc(C(=O)N2CCC3(CCC(CN4CCC(n5cc(NC(=O)c6cnn7ccc(N8CC9(COC9)C8)nc67)c(C(F)F)n5)CC4)CC3)CC2)cc1N1CCC(=O)NC1=O [Example 50, N-(3-(difluoromethyl)-1-(1-((3-(3-(2,4-dioxotetrahydropyrimidin-1(2H)-yl)-4-methylbenzoyl)-3-azaspiro[5.5]undecan-9-yl)methyl)piperidin-4-yl)-1H-pyrazol-4-yl)-5-(2-oxa-6-azaspiro[3.3]heptan-6-yl)pyrazolo[1,5-a]pyrimidine-3-carboxamide] | 5.94 | 82.1 | 36.7 |
| O=C1CCN(c2cc(C(=O)N3CCC4(CCC(CN5CCC(n6cc(NC(=O)c7cnn8ccc(N9CCOCC9)nc78)c(C(F)F)n6)CC5)CC4)CC3)ccc2OC(F)(F)F)C(=O)N1 [Example 52, N-(3-(difluoromethyl)-1-(1-((3-(3-(2,4-dioxotetrahydropyrimidin-1(2H)-yl)-4-(trifluoromethoxy)benzoyl)-3-azaspiro[5.5]undecan-9-yl)methyl)piperidin-4-yl)-1H-pyrazol-4-yl)-5-morpholinopyrazolo[1,5-a]pyrimidine-3-carboxamide] | 18.4 | 95.4 | 23.8 |
| Cc1ccc(C(=O)N2CCC3(CCC(CN4CCC(n5cc(NC(=O)c6cnn7ccc(N8CCS(=O)(=O)CC8)nc67)c(C(F)F)n5)CC4)CC3)CC2)cc1N1CCC(=O)NC1=O [Example 55, N-(3-(difluoromethyl)-1-(1-((3-(3-(2,4-dioxotetrahydropyrimidin-1(2H)-yl)-4-methylbenzoyl)-3-azaspiro[5.5]undecan-9-yl)methyl)piperidin-4-yl)-1H-pyrazol-4-yl)-5-(1,1-dioxothiomorpholinyl)pyrazolo[1,5-a]pyrimidine-3-carboxamide] | 7.52 | 79.2 | 21.3 |
| Cc1ccc(C(=O)N2CCC3(CCC(CN4CCC(n5cc(NC(=O)c6cnn7ccc(N8CCC[C@H](O)C8)nc67)c(C(F)F)n5)CC4)CC3)CC2)cc1N1CCC(=O)NC1=O [Example 56, (S)-N-(3-(difluoromethyl)-1-(1-((3-(3-(2,4-dioxotetrahydropyrimidin-1(2H)-yl)-4-methylbenzoyl)-3-azaspiro[5.5]undecan-9-yl)methyl)piperidin-4-yl)-1H-pyrazol-4-yl)-5-(3-hydroxypiperidin-1-yl)pyrazolo[1,5-a]pyrimidine-3-carboxamide] | 0.41 | 96.4 | 3.87 |
| O=C1CCN(c2cc(C(=O)N3CCC4(CCC(CN5CCC(n6cc(NC(=O)c7cnn8ccc(N9CCC[C@H](O)C9)nc78)c(C(F)F)n6)CC5)CC4)CC3)ccc2Cl)C(=O)N1 [Example 57, (S)-N-(1-(1-((3-(4-chloro-3-(2,4-dioxotetrahydropyrimidin-1(2H)-yl)benzoyl)-3-azaspiro[5.5]undecan-9-yl)methyl)piperidin-4-yl)-3-(difluoromethyl)-1H-pyrazol-4-yl)-5-(3-hydroxypiperidin-1-yl)pyrazolo[1,5-a]pyrimidine-3-carboxamide] | 0.58 | 96.6 | 4.57 |
| COc1ccc(C(=O)N2CCC3(CCN(CCCN4CCC(n5cc(NC(=O)c6cnn7ccc(N8CCOCC8)nc67)c(C(F)F)n5)CC4)CC3)CC2)cc1N1CCC(=O)NC1=O [Example 60, N-(3-(difluoromethyl)-1-(1-(3-(9-(3-(2,4-dioxotetrahydropyrimidin-1(2H)-yl)-4-methoxybenzoyl)-3,9-diazaspiro[5.5]undecan-3-yl)propyl)piperidin-4-yl)-1H-pyrazol-4-yl)-5-morpholinopyrazolo[1,5-a]pyrimidine-3-carboxamide] | 9.36 | 96.6 | 21.9 |
| COc1ccc(C(=O)N2CCC3(CCN(CCCCN4CCC(n5cc(NC(=O)c6cnn7ccc(N8CCOCC8)nc67)c(C(F)F)n5)CC4)CC3)CC2)cc1N1CCC(=O)NC1=O [Example 61, N-(3-(difluoromethyl)-1-(1-(4-(9-(3-(2,4-dioxotetrahydropyrimidin-1(2H)-yl)-4-methoxybenzoyl)-3,9-diazaspiro[5.5]undecan-3-yl)butyl)piperidin-4-yl)-1H-pyrazol-4-yl)-5-morpholinopyrazolo[1,5-a]pyrimidine-3-carboxamide] | 29 | 87.9 | 9.06 |
| O=C1CCN(c2cc(C(=O)N3CCC4(CCC(CN5CCC(n6cc(NC(=O)c7cnn8ccc(N9CCS(=O)(=O)CC9)nc78)c(C(F)F)n6)CC5)CC4)CC3)ccc2Cl)C(=O)N1 [Example 63, N-(1-(1-((3-(4-chloro-3-(2,4-dioxotetrahydropyrimidin-1(2H)-yl)benzoyl)-3-azaspiro[5.5]undecan-9-yl)methyl)piperidin-4-yl)-3-(difluoromethyl)-1H-pyrazol-4-yl)-5-(1,1-dioxothiomorpholinyl)pyrazolo[1,5-a]pyrimidine-3-carboxamide] | 9.18 | 79.3 | 36.2 |
| N[C@H]1CCCN(c2ccn3ncc(C(=O)Nc4cn(C5CCN(CC6CCC7(CC6)CCN(C(=O)c6ccc(Cl)c(N8CCC(=O)NC8=O)c6)CC7)CC5)nc4C(F)F)c3n2)C1 [Example 64, (S)-5-(3-aminopiperidin-1-yl)-N-(1-(1-((3-(4-chloro-3-(2,4-dioxotetrahydropyrimidin-1(2H)-yl)benzoyl)-3-azaspiro[5.5]undecan-9-yl)methyl)piperidin-4-yl)-3-(difluoromethyl)-1H-pyrazol-4-yl)pyrazolo[1,5-a]pyrimidine-3-carboxamide] | 7.47 | 96.1 | 5.93 |
